Experimental data taken from patent US20040053884A1, “Preventives or remedies for arthritis” (priority 2001, published 2004).
Counter-ions that a name gives are not always drawn.

Tests used:
[1] = tested on: mice with type II collagen-induced arthritis; assay: Test Example 4: feed given from day 28 (after induction), type II collagen-induced arthritis score; format: in vivo, DBA/1J mice; details: for Scores compared with control (in words): 0.1% added to the feed from day 28, any of the days after day 33; for Score of arthritis: 0.1% in feed starting at day 28, mean ±SE, N=10, scale 0-16
Experimental: (§1) Unless otherwise noted, in the following test examples, DBA/1J mice produced by Charles River, powder feed CE2 produced by CLEA Japan, N-acetylhydroxyproline produced by Kyowa Hakko Kogyo, D-glucosamine sulfate 2NaCl as glucosamine (Miyako Kagaku) and chondroitin sodium sulfate (Maruha Kagaku) as chondtoitin were used.
(§2) Scoring was carried out by applying 0-4 points with respect to one of four paws of mice: 0: no symptom; 1: swelling of one finger or swelling (slight) of the ankle; 2: swelling of 1-3 fingers or swelling of the ankle; 3: swelling of 3-5 fingers plus swelling of the ankle; and 4: swelling of all the fingers plus swelling of the ankle. Each mouse was scored the total of the points of 4 paws, namely, 0-16 points.
(§3) As in Test Example 1, 21 days after the first administration of type II collagen, a solution prepared by mixing an equal amount of type II collagen and Freund's complete adjuvant and emulsifying the mixture using a homogenizer in a similar manner as in Test Example 1 was intradermally administered to the mice in an amount of 100 μl per one animal as the second administration of type II collagen. In this manner, arthritis was induced in mice.
Starting at day 28 after the first administration of type II collagen, the mice were given powder feed CE-2 containing no additive as control; powder feed CE-2 containing 0.1% N-acetylhydroxyproline (indicated as AcHYP in Tables 4-1 and 4-2); powder feed CE-2 containing 0.1% glucosamine; powder feed CE-2 containing 0.05% N-acetylhydroxyproline and 0.05% glucosamine; powder feed CE-2 containing 0.05% glucosamine and 0.05% chondroitin; and powder feed CE-2 containing 0.05% N-acetylhydroxyproline, 0.025% glucosamine and 0.025% chondroitin, respectively. At days 28, 33, 36, 39 and 42 after the first administration of type II collagen, the extent of the development of arthritis was scored according to the indices employed in the above Test Example 1.
Ten mice were subjected to the test with respect to each of the conditions.
In the tables, the figures show the scores under different treatment conditions, which are given as mean ±SE (N=10).
(§4) In the tables, “no treatment” means no administration of type II collagen, and “control” means mice were given the feed containing no additive.

[2] = tested on: mice with type II collagen-induced arthritis; assay: as above; format: in vivo, DBA/1J mice; details: day 0 (before feeding); 0.1% in feed starting at day 28; mean ±SE, N=10; scale 0-16
[3] = tested on: mice with type II collagen-induced arthritis; assay: Test Example 1: N-acetylhydroxyproline and glucosamine in feed, type II collagen-induced arthritis score; format: in vivo, DBA/1J mice; details: for Scores compared with control (in words): 0.1% added to the feed, compared with no additive (control); for Score of arthritis: 0.1% in feed from day of first collagen administration, mean ±SE, N=20, scale 0-16
Excerpt: as §1
It is known that arthritis is induced in DBA/1J mice by administering type II collagen two times.
As the first administration of type II collagen, a solution prepared by mixing an equal amount of type II collagen [Collagen Gijutsu Kenshu Kaisha (MCK)] and Freund's complete adjuvant (Iatron) and emulsifying the mixture using a homogenizer was intradermally administered to 6-week old male DBA/1J mice in an amount of 100 μl per one animal.
as §3, with “Twenty-one days” for “As in Test Example 1, 21 days”, “collagen, EXAMPLE” for “collagen,”, “manner” for “manner as in Test Example 1”, “the animals” for “the mice”
Starting on the day of the first administration of type II collagen, the mice were given powder feed CE-2 containing no additive as control; powder feed CE-2 containing 0.1% N-acetylhydroxyproline (indicated as AcHYP in Tables 1-1 and 1-2); powder feed CE-2 containing 0.1% glucosamine (D-glucosamine sulfate 2NaCl); and powder feed CE-2 containing 0.05% N-acetylhydroxyproline and 0.05% glucosamine, respectively. At days 24, 28, 31, 34, 38 and 42 after the first administration of type II collagen, the extent of the development of arthritis was scored according to the following indices.
as §2
(§5) Twenty mice were subjected to the test with respect to each of the conditions.
(§6) In the tables, the figures show the scores under different treatment conditions, which are given as mean ±SE (N=20).
as §4

[4] = tested on: mice with type II collagen-induced arthritis; assay: Test Example 2: N-acetylhydroxyproline and chondroitin in feed, type II collagen-induced arthritis score; format: in vivo, DBA/1J mice; design: key to Score of arthritis: sum of 4 paws scored 0-4 each, 0-16 points; 0 = no symptom; details: for Score compared with control (in words): 0.1% added to the feed; for Score of arthritis: 0.1% in feed from day of first collagen administration, mean ±SE, N=20, scale 0-16
Experimental: as §1, §2
An experiment similar to that of Test Example 1 was carried out except that chondroitin was used in place of glucosamine.
as §3, with “That is,” for “As in Test Example 1,”
Starting on the day of the first administration of type II collagen, the mice were given powder feed CE-2 containing no additive as control; powder feed CE-2 containing 0.1% N-acetylhydroxyproline (indicated as AcHYP in Tables 2-1 and 2-2); powder feed CE-2 containing 0.1% chondroitin; and powder feed CE-2 containing 0.05% N-acetylhydroxyproline and 0.05% chondroitin, respectively. At days 23, 27, 30, 33, 36, 40 and 42 after the first administration of type II collagen, the extent of the development of arthritis was scored according to the indices employed in the above Test Example 1.
as §5, §6, §4

arthritis = details: Pharmacological Research, 33, 367-373 (1996); cited from earlier work
[5] = tested on: mice with type II collagen-induced arthritis; assay: Test Example 3: N-acetylhydroxyproline, glucosamine and chondroitin in feed, type II collagen-induced arthritis score; format: in vivo, DBA/1J mice; details: for Score of arthritis: 0.05% of each additive in feed from day of first collagen administration, mean ±SE, N=20, scale 0-16
Experimental: as §1, §2
An experiment similar to that of Test Example 1 was carried out except that glucosamine and chondroitin were used in place of glucosamine.
as §3, with “That is,” for “As in Test Example 1,”
Starting on the day of the first administration of type II collagen, the mice were given powder feed CE-2 containing no additive as control; powder feed CE-2 containing 0.05% N-acetylhydroxyproline (indicated as AcHYP in Tables 3-1 and 3-2); powder feed CE-2 containing 0.05% N-acetylhydroxyproline and 0.05% chondroitin; and powder feed CE-2 containing 0.05% N-acetylhydroxyproline, 0.05% glucosamine and 0.05% chondroitin, respectively. At days 24, 28, 31, 35, 38 and 42 after the first administration of type II collagen, the extent of the development of arthritis was scored according to the indices employed in the above Test Example 1.
as §5, §6, §4

[6] = tested on: animal model for arthritis; details: administration after induction of arthritis; J. Drug. Dev., 3, 135-142 (1990); cited from earlier work

Row | Molecule | Scores compared with control (in words) [1] | Score of arthritis ([1]; day 28 (start of feeding)) | Score of arthritis ([1]; day 33) | Score of arthritis ([1]; day 36) | Score of arthritis ([1]; day 39) | Score of arthritis ([1]; day 42) | Score of arthritis [2] | Scores compared with control (in words) [3] | Score of arthritis ([3]; day 0) | Score of arthritis ([3]; day 24) | Score of arthritis ([3]; day 28) | Score of arthritis ([3]; day 31) | Score of arthritis ([3]; day 34) | Score of arthritis ([3]; day 38) | Score of arthritis ([3]; day 42) | Score of arthritis ([4]; day 0) | Score of arthritis ([4]; day 23) | Score of arthritis ([4]; day 27) | Score of arthritis ([4]; day 30) | Score of arthritis ([4]; day 33) | other results
1 | N[C@H]1C(O)O[C@H](CO)[C@@H](O)[C@@H]1O (stereo partly drawn) [Glucosamine, D-glucosamine sulfate 2NaCl] | slight lowering of the scores | 4.3 ± 0.9 | 9.8 ± 1.2 | 10.1 ± 1.1 | 10.4 ± 1.0 | 10.6 ± 1.0 | 0.0 ± 0.0 | lowering of the scores | 0.0 ± 0.0 | 0.1 ± 0.1 | 5.8 ± 0.6 | 7.7 ± 0.7 | 9.2 ± 0.7 | 9.5 ± 0.6 | 9.4 ± 0.6 |  |  |  |  |  | 
2 | chondroitin sodium sulfate |  |  |  |  |  |  |  |  |  |  |  |  |  |  |  | 0.0 ± 0.0 | 0.1 ± 0.1 | 3.4 ± 0.6 | 7.8 ± 1.0 | 9.1 ± 0.9 | Score compared with control (in words) ([4]; after day 36): almost no lowering of the score; Score compared with control (in words) ([4]; until day 33): slight lowering of the score; Score of arthritis ([4]; day 36): 9.7 ± 0.8; Score of arthritis ([4]; day 40): 9.9 ± 0.8; Score of arthritis ([4]; day 42): 9.8 ± 0.7
3 | CC(=O)N1C[C@H](O)C[C@H]1C(=O)O [AcHYP, N-acetylhydroxyproline] | slight lowering of the scores | 4.3 ± 0.9 | 9.8 ± 1.0 | 10.9 ± 1.1 | 10.7 ± 1.1 | 10.8 ± 1.0 | 0.0 ± 0.0 | lowering of the scores | 0.0 ± 0.0 | 0.0 ± 0.0 | 6.5 ± 0.7 | 9.5 ± 0.8 | 10.7 ± 0.8 | 10.8 ± 0.8 | 10.6 ± 0.8 | 0.0 ± 0.0 | 0.1 ± 0.1 | 3.3 ± 0.7 | 7.0 ± 0.9 | 7.8 ± 0.9 | Effect on chondral injury at joints (arthritis): shows no effect; Effect on systemic injury of ear and tail (arthritis): shows a therapeutic effect; Scores compared with control (in words) ([5]; 0.05% of each additive in the feed, any of the days after day 24): almost no lowering of the scores; Score of arthritis ([5]; day 0): 0.0 ± 0.0; Score of arthritis ([5]; day 24): 0.2 ± 0.1; Score of arthritis ([5]; day 28): 5.4 ± 0.6; Score of arthritis ([5]; day 31): 8.5 ± 0.7; Score of arthritis ([5]; day 35): 9.4 ± 0.8; Score of arthritis ([5]; day 38): 9.9 ± 0.8; Score of arthritis ([5]; day 42): 9.4 ± 0.7; Score compared with control (in words) ([4]; any of the days after day 27): lowering of the score; Score of arthritis ([4]; day 36): 7.9 ± 1.0; Score of arthritis ([4]; day 40): 8.4 ± 0.9; Score of arthritis ([4]; day 42): 8.8 ± 0.8; Aggravation of arthritis [6]: can prevent aggravation of arthritis
